Test results taken from US20170216340A1, “A Nucleoside Derivative For Use As A Drug, Particularly For The Treatment Of Chronic Lymphocytic Leukemia” (INSTYTUT BIOLOGII MEDYCZNEJ POLSKIEJ AKADEMII NAUK, priority 2014, published 2017).
Entries after “also recorded” stand apart in the source; their conditions may differ.

Tests used:
[1] = test system: caspase 3; experiment: Caspase-3 activation assay (PE Active Caspase-3 Apoptosis Kit, flow cytometry); assay type: cell-based, human; set-up: number of caspase-3-positive cells: dose or concentration left out as unconfirmed; details: PLL cells; for number of cells with active form of caspase 3: 48 h drug exposure, 15 μM
Method: Caspase 3 is a main effector caspase which is involved in apoptosis process realization (Miura M., Zhu H., Otello R., Hartwieg E.A., Yuan J. 1993. Induction of apoptosis in fibroblasts by IL-1 beta-converting enzyme, a mammalian homolog of the C. elegans cell death gene ced-3, Cell, 75, 653-660). […] Our analysis, conducted after 48 h drug exposure, confirmed that in PLL cells a high antileukemic potential of adenosine modified at C-2 position with boron cluster is related to apoptosis induction. The number of cells with active form of the enzyme raised after the exposure to compound 3 from 9.4% and 10.6% in control and vehicle control (DMSO), respectively, to 28.5%. Similar effect (20,1%) was observed after the incubation of PLL cells with cladribine at concentration of 15 μM which recursively exceeds its level in serum of patients during antileukemic therapy. […] Of note, compound 5 affected PLL cells weaker than compound 3 which was confirmed by caspase 3 activation in 16.1% of leukemic cells.
The percent of leukemic PBMCs with active form of caspase-3 was measured cytometrically by PE Active Caspase-3 Apoptosis Kit, BD Pharmingen according to manufacturer's protocol. The analyses were conducted after 48 h incubation with/without (control) the agents or DMSO (vehicle control). BD LSR II flow cytometer was used and the analyses were performed using FACSDiva Version 6.1.2 software (see results in FIG. 2).

[2] = test system: PLL cells; experiment: Viability and apoptosis induction in PLL PBMCs (Membrane Permeability/Dead Cell Apoptosis Kit); assay type: cell-based, human; details: 15 μM, 1 case of PLL, very preliminary data
Method: The 15 μM concentration of the used agents, as safe for normal PBMCs, was selected for further analyses with regard to their apoptosis-inducing potential. The viability and apoptosis induction were examined in cell samples obtained from peripheral blood of 6 patients with leukemia (5 cases of CLL and 1 case of PLL). […] It is worth noting that the agents differed in their apoptosis inducing potential in PLL cells.
Firstly, it was analyzed by propidium iodide staining. Then, Membrane Permeability/Dead Cell Apoptosis Kit (Molecular Probes, Invitrogen™) was used to examine the contribution of apoptosis to cell death induction after exposure to the used agents. The analyses were performed on BD LSR II flow cytometry using FACSDiva Version 6.1.2 software. Ten thousand events were examined for each analysis. The distinction between living (YO-PRO-negative/propidium iodide-negative), early apoptotic (YO-PRO-positive/propidium iodide-negative) and dead (YO-PRO-positive/propiodium iodide-positive) cells was based on the differences in their permeability for fluorescent dyes. The results are shown as the percent of viable and early apoptotic cells in gated PBM cell population, respectively.
For further analyses the concentration of 15 μM of all tested agents was chosen. […]

[3] = test system: CLL cells; experiment: Cytotoxicity in leukemic PBMCs from CLL patients; assay type: cell-based; details: 24 and 48 h
Method: (§1) During the first stage, the cytotoxicity analysis of compounds according to the present invention introduced into the culture medium in increasing concentrations (from 0 μM to 60 μM) against leukemic and healthy peripheral blood mononuclear cells (PBMCs). The goal of this stage was to select the optimal concentrations which would be useful for the further comparative analysis of novel compound with conventional chemotherapeutics, i.e. cladribine and fludarabine, in terms of their antileukemic efficacy. The cytotoxicity of compounds was evaluated in PBMCs isolated from the blood of 5 patients with CLL, 1 with PLL and 5 healthy donors after 24 and 48 h. of incubation. Cell survival was evaluated cytometrically using propidium iodide staining using the Membrane Permeability/Dead Cell Apoptosis assay (propidium iodide+YO-PRO). […] FIG. 1a represents the survival of healthy cells treated with compounds according to the present invention at increasing concentrationsand evaluated using the Membrane Permeability/Dead Cell Apoptosis assay.
(§2) PBMC cells were isolated from peripheral blood using centrifugation via a Histopaque gradient according to the manufacturer's instructions. […] The cytotoxicity was assessed cytometrically after 24 and 48 h incubation.
(§3) Firstly, it was analyzed by propidium iodide staining. […]

[4] = test system: normal PBMCs; experiment: Cytotoxicity in normal PBMCs (propidium iodide; Membrane Permeability/Dead Cell Apoptosis Kit); assay type: cell-based, human; details: normal PBMCs from healthy donors, 24 and 48 h
Method: as §1, §2, §3

[5] = test system: PARP-1, Bax, Bcl-2, Mcl-1; experiment: Western blot analysis of apoptosis-related proteins in CLL and PLL cells; assay type: cell-based, human; details: 15 μM; for expression level of Bcl-2 in comparison to vehicle control: PBMC samples from Patient 2, 48 h
Method: The expression of apoptosis-related proteins was assessed in CLL and PLL cells exposed to the tested agents. All examined adenosine derivatives triggered proteolysis of PARP-1 full length protein (116 kDa) to its cleavage product (89 kDa), which is a known marker of apoptosis. Moreover, altered expression of pro-apoptotic (Bax) and anti-apoptotic proteins (Mcl-1, Bcl-2) from Bcl-2 family was also observed in purine derivative-treated leukemic cells. However, there were some individual differences between basal levels of these apoptotic regulators in model cells, as well as the changes in their cellular levels after the agent exposure were diverse. For instance, there were no significant alterations in Bax/Bcl-2 ratio in cell samples obtained from exemplary patient 1 exposed to the novel nucleosides.
Control PBMCs (without the agents), as well as the cells samples exposed to DMSO (vehicle control) and the tested agents were lysed (4° C., 1 h) in a buffer containing 10 mM Tris-HCl (pH 7.5), 300 mM NaCl, 1% Triton X-100, 2 mM MgCl2, 0.1 M DTT, and protease inhibitors as described previously (A., Kobylinska, J., Bednarek, J. Z., Blonski, M., Hanausek, Z., Walaszek, H., Piekarski, T., Robak, Z. M., Kilianska. 2006. In vitro sensitivity of B-cell chronic lymphocytic leukemia to cladribine and its combinations with mafosfamide and/or mitoxantrone, Oncol. Rep., 16, 1389-1395). Protein content was estimated according to Lowry method (O. H., Lowry, N. J., Rosebrough, A. L., Farr, R. J., Randall. 1951. Protein measurement with the Folin phenol reagent. J. Biol. Chem., 193, 265-275) and the cell lysates were prepared for subsequent Western blotting analysis. Protein samples (60 μg/lane) were separated by SDS polyacrylamide gel electrophoresis (SDS-PAGE) on 8.0 or 12.5% slab gels and electrotransfered onto Immobilon P (H., Towbin, T., Staechlin, J., Gordon, 1979, Electrophoretic transfer of protein from polyacrylamide gels to nitrocellulose sheets: procedure and some applications. Proc. Natl. Acad. Sci. USA, 76, 4350-4354). Membrane staining with 0.5% Ponceau S solution was done to confirm equal protein loading and completeness of the transfer. The membranes were saturated in 5.0% skim milk in TBS (10 mM Tris-HC1, pH 7.5, 150 mM NaC1) for 1 h at ambient temperature, and then incubated overnight with antibodies specific to Mcl -1 (1:1000), Bcl-2 (1:1000), Bax (1:1000), PARP-1 (1:1000), all from Santa Cruz Biotechnology Inc. Antigen recognition was performed with appropriate secondary antibodies conjugated with horseradish peroxidase. The antigen-antibodies complexes were detected with Novex HRP Chromogenic substrate (TMB) from Invitrogen or, alternatively, by chemiluminescence method (see results in FIG. 3).

2-ethynyl-(1,12-dicarba-closo-dodecaboran-2-yl)adenosine [compound 3]
number of cells with active form of caspase 3 [1]: 28.5%
anti-leukemic (apoptosis inducing) potential against PLL cells [2]: very potent against PLL cells; also recorded: even higher than that of cladribine and fludarabine
cytotoxicity / anti-leukemic potential against CLL cells [3]: smaller anti-leukemic potential against CLL cells than compound 5
cytotoxicity against normal PBMCs [4]: less cytotoxic against normal PBMCs; also recorded: lower than fludarabine
expression level of Bcl-2 in comparison to vehicle control [5]: clear decrease

8-ethynyl-(1,12-dicarba-closo-dodecaboran-2-yl-2′-deoxyadenosine [compound 5]
number of cells with active form of caspase 3 [1]: 16.1%
cytotoxicity / anti-leukemic potential against CLL cells [3]: more cytotoxic in comparison to compound 3
expression level of Bcl-2 in comparison to vehicle control [5]: clear decrease

Nc1nc(Cl)nc2c1ncn2[C@H]1C[C@H](O)[C@@H](CO)O1 [cladribine, reference compound]
number of caspase-3-positive cells ([1]; 48 h): 11.8%
number of cells with active form of caspase 3 [1]: 20,1%
Bax expression level ([5]; cells from patient 1, 48 h): essential increase
Bcl-2 protein level ([5]; cells from patient 1, 48 h): diminution

Nc1nc(F)nc2c1ncn2[C@@H]1O[C@H](CO)[C@@H](O)[C@@H]1O [fludarabine]
number of cells with active form of caspase 3 [1]: 11.8%
